The subject of series [1] is human myoblast cells. Nature of the series: Differentiation of human myoblast cells, MyHC immunostaining. The format is cell-based. The conditions noted are these: for percentage area of MyHC compared with vehicle control: 96 hours, One-Way ANOVA Tukey; for % MyHC: 96 hours with daily media change. The method, then:
FIG. 1A: The suspension CHO cells were transiently transfected with the IGF2-hFcm encoding plasmid. IGF2-hFcm was affinity-purified by Protein A membrane column. The purified IGF2-hFcm was added into the culture of human myoblast cells for 96 hours. Myosin heavy chain (MyHC) was immunostained and imaged by a fluorescence microscope.
FIG. 1B: The suspension CHO cells were transiently transfected with the IGF2-LhFc4 encoding plasmid. IGF2-LhFc4 was affinity-purified by Protein A membrane column. The purified IGF2-LhFc4 was added into the culture of human myoblast cells for 96 hours with daily media change. Myosin heavy chain (MyHC) was immunostained and imaged by a fluorescence microscope.
FIG. 2A: The suspension CHO cells were transiently transfected with the HSA-L-IGF2R61A encoding plasmid. HSA-L-IGF2R61A was affinity-purified by Protein A membrane column. The purified HSA-L-IGF2R61A was added into the culture of human myoblast cells for 96 hours with daily media change. Myosin heavy chain (MyHC) was immunostained and imaged by a fluorescence microscope.
Suspension CHO cells were transiently transfected with the IGF2-hFcm encoding plasmid. After four days, the culture supernatants were collected and IGF2-hFcm was affinity-purified by Protein A membrane column. The purified IGF2-hFcm was added into the culture of human myoblast cells. Myosin heavy chain (MyHC) was immunostained and imaged by a fluorescent microscope. After quantification of the stained MyHC, the percentage area of MyHC was calculated as the percent of pixels within the field that are illuminated above background in the stained channel. […] Significance was determined by a p-value less than 0.05 by the one-way ANOVA Tukey Honest Significant Difference test.

Series [2] is described as follows: Backbone cleavage on expression from CHO cells (reducing SDS-PAGE, Western blot). The method, then: The amino acid backbone of IGF2 is cleaved when expressed from Chinese Hamster Ovary (CHO) cells (FIG. 13A) as visualized on a reducing SDS-PAGE and Western blot (FIG. 13B). The CHO cells were grown in a 37° C. incubator with a humidified atmosphere of 8% CO2 on an orbital shaker platform with a shaking speed 125 rpm to reach 4E6 cells/mL, followed by transferring the calculated volume of cells to fresh, pre-warmed ExpiCHO™ Expression Medium in a shake flask. Incubated flasks in a 37° C. incubator with a humidified atmosphere of 8% CO2 shook on an orbital shaker platform until cultures reached a density of 4×106-6×10^6 viable cells/mL. After mixing each plasmid with 100 ul SFM in a microtube; ExpiFectamine (8 ul×10.5=84 ul) with OptiPro medium (92 ul×10.5=966 ul) in a microtube; adding 100 ul into the plasmid tube and mix by pipetting; After 5 min, add 200 ul into each well and swirl to mix. mix enhancer (15×10.2=153 ul) with feed (600×10.2=6.12 ml), add 615 ul into each well. Culture supernatant collected at intervals was spun down at low speed and high speed, then frozen at −80 deg. Aliquots were analyzed for protein concentration by nanodrop, and then an equivalent amount loaded onto 4-12% SDS-PAGE gels for molecular weight distribution analysis. […]
For orientation: Immunoblotting shows a protein as a band on a membrane.

The test system of series [3] is healthy human muscle precursors from person. Nature of the series: In vitro myogenesis assay, healthy human muscle precursors. The format is cell-based. The method, then:
(§1) Human muscle progenitor cells (early passage myoblasts) were cultured and expanded in growth medium: Ham's F-10 (Gibco), 20% Bovine Growth Serum (Hyclone), 5 ng/mL FGF2 and 1% penicillin-streptomycin on Matrigel coated plates (1:300 matrigel: PBS), at 37° C. and 5% CO2. For experimental conditions, cells were plated at 40,000 cells/well on Matrigel coated 8-well chamber slides in 250-500 μL medium per well (1:100 matrigel: PBS) in human fusion medium: DMEM (Gibco)+2% horse serum (Hyclone). One hour after plating, human myoblasts were treated with 50% respective media: […] were cultured for 24 hours in the above conditions, at 37° C. in 10% CO2 incubator. BrdU (300 μM) in DMSO was added for 2 hours prior to fixation with cold 70% ethanol and stored at 4° C. until staining.
(§2) Following permeabilization in PBS+0.25% Triton X-100, antigen retrieval was performed. Primary staining was performed with primary antibodies including: a species-specific monoclonal antibody for mouse anti-embryonic Myosin Heavy Chain (eMyHC, hybridoma clone 1.652, Developmental Studies Hybridoma Bank) and Rat-anti-BrdU (Abcam Inc. ab6326). […]

Series [4] deals with rhIGFBP3 (Homo sapiens, UniProt P17936). Nature of the series: Interaction with rhIGFBP3 by size exclusion chromatography (HPLC). The conditions noted are these: 1:1 stoichiometric mixture. The format is binding. From the text:
In physiological conditions IGF2 will bind IGF binding proteins (IGFBPs). The purpose of this study was to determine if mutant sequences of IGF2 interact with IGFBPs. Retention time across a size exclusions chromatography column is proportional to the size of the molecule. Thus molecular interactions can be ascertained by a corresponding change in retention time on a size exclusions chromatography column.
In general terms: In gel filtration, larger molecules generally elute earlier.

Series [5] in a line: Pharmacokinetics after intravenous injection in mice. In kind it is in vivo. The method, then: Murine pharmacokinetics (PK) represents the absorption, distribution, metabolism, and elimination of drugs from the body. The pharmacokinetic profile of the therapeutic polypeptides were determined in mice (10-12 weeks old). Mice were fed ad libitum and housed under controlled conditions of lighting (12-hour light/12-hour dark) and temperature (22-24° C.). Mice were allowed to acclimate for 3 days prior to the initiation of the experiment. Intravenous (IV) injection in 10-12 weeks old mice. Engineered mitogenic polypeptides concentrations in the samples were measured by ELISA. Various pharmacokinetics will be calculated as well as the absorption/elimination dynamics following different routes of administration.

The test system of series [6] is human DM1 muscle precursors from person. Nature of the series: In vitro myogenesis assay, human DM1 muscle precursors. The format is cell-based. The conditions noted are these: equimolar concentrations across a range of concentrations. The method, then: as §1, §2
Series [7] concerns DM1 human myoblast. The series can be described thus: Gene expression fold change in DM1 human myoblast. In kind it is cell-based. Conditions: 48 h; BMP7 50 ng/mL, Butyrate 100 nM, IGF2 200 ng/mL. The method, then:
Myoblasts were cultured 48 h in the presence of factors (BMP7 50 ng/mL, Butyrate 100 nM, IGF2 200 ng/mL).
Myoblasts were cultured 96 h in the presence of factors (IGF2 200 ng/mL). […] Myoblasts were cultured 48 h in the presence of factors (IGF2 200 ng/mL).
RNA was isolated from each well (RNeasy Mini Kit, Qiagen) and cDNA was obtained by reverse-transcription (High Capacity Reverse Transcription Kit, Thermo Fisher Scientific). Real-time quantitative PCR was performed using QuantStudio3 (Thermo Fisher).
IGF2 was tested individually for its ability to promote proliferation and/or fusion of human muscle progenitor cells from an individual with myotonic dystrophy type 1 (hMD)—a muscular dystrophy caused by mutations in the DMPK1 gene. The effect of IGF2 on myogenic activity was assayed in biological triplicate across a range of concentrations centered around expected physiological levels by adding each factor to hMD myoblasts for 72 hours with daily media changes (DMEM+2% horse serum) and a second pulse of factors at the first media change. After 72 or 96 hours, cells were pulsed for 2-5 hours with EdU (30 uM), ethanol fixed, stained with Hoescht 3342, immunostained for proliferation—as measured by the percent of cells staining positive for EdU (% EdU)-, and immunostained for differentiation—as measured by the increase in cellular area staining positive for embryonic myosin heavy chain (% eMyHC) relative to the negative controls, which received media and vehicle only. Wells were imaged on a Keyence BZ-100 at 4×, the images quantified in Cell Profiler, and the statistics were computed in R. Additionally, RNA was extracted from myoblast and select transcript abundances quantified by qPCR.

In series [8] the test system is Mouse myoblasts. Nature of the series: Mouse myoblast fusion index with sodium butyrate. The conditions noted are these: 48 h. In kind it is cell-based. The method, then:
Mouse myoblasts were treated with PBS or sodium butyrate at concentrations 0.1 nM, 1 nM, and 10 nM. Myoblasts were cultured for 48 hours, with fresh media added every 24 hours. Cells were pulsed for 2-5 hours with EdU (30 uM), ethanol fixed, stained with Hoescht 3342, immunostained for proliferation—as measured by the percent of cells staining positive for EdU (% EdU)-, and immunostained for differentiation—as measured by the increase in cellular area staining positive for embryonic myosin heavy chain (% eMyHC) relative to the negative controls, which received media and vehicle only. […] Significance was determined by a p-value less than 0.05 by the one-way ANOVA Tukey Honest Significant Difference test.
FIG. 3A: Bar graph of fusion index in response to sodium butyrate (NaBut) compared to vehicle. Myoblast were cultured 48 h in the presence of NaBut at indicated dose. Fresh media and NaBut were added every 24 h. Mean∓S.D. Table with quantitation of fusion index and p-values also shown. (*p<0.05 by Student's Two-tailed T-test, n=3−5)

For series [9], the system named is human myoblast cells. The series can be described thus: Human myoblast differentiation (% eMyHC area), IGF2 and/or sodium butyrate. The format is cell-based. The method, then: Human myoblast cells were treated with either PBS (vehicle), IGF2 (15 ng/mL), sodium butyrate, or IGF2 and sodium butyrate. Fresh media was added every 24 hours. After 96 hours, cells were pulsed for 2-5 hours with EdU (30 uM), ethanol fixed, stained with Hoescht 3342, immunostained for proliferation—as measured by the percent of cells staining positive for EdU (% EdU)-, and immunostained for differentiation—as measured by the increase in cellular area staining positive for embryonic myosin heavy chain (% eMyHC) relative to the negative controls, which received media and vehicle only. The total area of eMyHc positive cells was analyzed, and treated cells were compared to cells treated with the vehicle alone. […] Significance was determined by a p-value less than 0.05 by the one-way ANOVA Tukey Honest Significant Difference test.
FIG. 3C Bar graph quantitation of % Area eMyHC+ human myoblast in response to indicated treatment compared to IGF2 (15 ng/mL). Myoblast were cultured 96 h in the presence of IGF2 at indicated dose. Fresh media and IGF2 was added every 24 h.
Human myoblast cells were treated with either PBS (vehicle), IGF2 (15 ng/mL), sodium butyrate, or IGF2 and sodium butyrate. Fresh media was added every 24 hours. After 48 hours, cells were pulsed for 2-5 hours with EdU (30 uM), ethanol fixed, stained with Hoescht 3342, immunostained for proliferation […] as measured by the percent of cells staining positive for EdU (% EdU)-, and immunostained for differentiation—as measured by the increase in cellular area staining positive for embryonic myosin heavy chain (% eMyHC) relative to the negative controls, which received media and vehicle only.
Significance was determined by a p-value less than 0.05 by the one-way ANOVA Tukey Honest Significant Difference test.

rhIGFBP3, sequence (P17936 28-291): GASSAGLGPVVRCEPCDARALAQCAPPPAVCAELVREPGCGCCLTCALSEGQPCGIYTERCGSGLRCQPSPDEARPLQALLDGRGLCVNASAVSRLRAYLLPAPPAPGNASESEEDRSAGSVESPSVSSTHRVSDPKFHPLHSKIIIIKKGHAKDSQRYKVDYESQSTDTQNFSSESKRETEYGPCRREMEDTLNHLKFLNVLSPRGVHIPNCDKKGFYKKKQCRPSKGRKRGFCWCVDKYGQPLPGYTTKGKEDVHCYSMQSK

On to “IGF2-LhFc4: Human IGF2-linker3-hFc4 (human IgG4 Fc with S228P), SEQ ID NO 38”, for which the “percentage area of MyHC compared with vehicle control” value in series [1] was “significantly higher”. In addition, the “% MyHC” value in series [1] (FIG. 1B, Example 3) amounted to 6.237%.
For the compound “IGF2-hFc4: Human IGF2-hFc4, SEQ ID NO 39”, the “% MyHC” value in [1] (FIG. 1B, Example 3) came out at 6.901%.
Regarding “HSA-IGF2: His tagged HSA fusion IGF2 with a long linker, SEQ ID NO 33”, in [2], the “cleavage of the amino acid backbone when expressed from CHO cells” value is listed as “cleaved”. In addition, the “% MyHC” value in [1] (FIG. 2A, Example 4) is reported as 7.079%.
For “HSA-IGF2R61A: His tagged HSA fusion IGF2 R61A mutant with a long linker, SEQ ID NO: 34”, the “myogenic activity relative to IGF2” value in series [3] (equimolar concentrations across a range of concentrations) and in series [6] was “equal activity” each time. In series [3] (equimolar concentrations, before or after size exclusion purification via HPLC), the “myogenic activity relative to HSA-IGF2” value is listed as “equal or increased activity”. Besides, the “interaction with rhIGFBP3 (mass shift in size exclusion chromatography)” value in [4] is reported as “preserved affinity”. Also, the “serum half-life compared to the natural sequence of IGF2” value in [5] (mice) is given as “significantly improved”. The same compound came in with a Half-life in [5] (mice 10-12 weeks old, dose 10 mg/kg (HSA-IGF2R61A), 600 ug/kg (IGF2), Non-Compartment Analysis) of 20.81 h. Besides, the “percentage area of MyHC compared with vehicle control” value in [1] is “significantly higher”. The “% MyHC” value in series [1] (FIG. 2A, Example 4) is 6.914%.
With “hFc4L-IGF2: hFc4-linker3-human IGF2, SEQ ID NO 40”, the “% MyHC” value in [1] (FIG. 1B, Example 3) is recorded as 5.820%.
For the compound `CCCC(=O)[O-].[Na+]` [NaBut, sodium butyrate], in series [7], the “MYF5 myogenic gene expression fold change compared to FM (vehicle)” value is reported as 1.128. Besides, the “MYODI myogenic gene expression fold change compared to FM (vehicle)” value in series [7] is reported as 1.095. Moreover, in series [7], the “MYOG myogenic gene expression fold change compared to FM (vehicle)” value is recorded as 1.020. In addition, the “Fusion Index (nuclei/myotube)” value in series [8] (NaBut 0.1 nM) was 8.44 nuclei/myotube; in series [8] (NaBut 1 nM), 31.60 nuclei/myotube; in [8] (NaBut 1 nM, listed as sodium butyrate), “increased rates of fusion”; in series [8] (NaBut 10 nM) it was 14.00 nuclei/myotube. Moreover, the “% eMyHC” value in series [9] (NaBut 1 nM, 96 h (FIG. 3B)) came to 2.321%; in series [9] (NaBut 1 nM, after 48 hours (FIG. 4A)), 2.321%; in [9] (NaBut 10 nM, 96 h (FIG. 3B)) it was 6.199%; in series [9] (NaBut 10 nM, after 48 hours (FIG. 4A)), 6.199%; in series [9] (NaBut 100 nM, 96 h (FIG. 3B)), 8.341%; in series [9] (NaBut 100 nM, after 48 hours (FIG. 4A)), 8.341%.

The values above are taken from patent US20220409696A1, “Heparin-Associated Polypeptides and Uses Thereof” (Juvena Therapeutics, Inc., priority 2021, published 2022).
